For 35 compounds, IC50 results are on record in US10772893B2, “2-(morpholin-4-yl)-1,7-naphthyridines” (BAYER PHARMA AKTIENGESELLSCHAFT, priority 2014, dated 2020).

Molecules are shown by their SMILES. Where two headings read alike, the source gives them in different places.

The subject of this experiment is HeLa cells. Briefly: Proliferation assay, crystal violet staining. The conditions noted are these: Homo sapiens, 96 h.
The mark [1] stands for this setting: read-out: Inhibition of HeLa cell proliferation, HeLa cells, 4 days incubation.

Regarding `C[C@@H]1CN[C@@H](C)CN1c1cc(N2CCOCC2)nc2c(-c3ccn[nH]3)nccc12` (relative stereo) [Example 178, 4-[(trans)-2,5-dimethylpiperazin-1-yl]-2-(morpholin-4-yl)-8-(1H-pyrazol-5-yl)-1,7-naphthyridine], the IC50 under setting [1] is over 3000 nM.

As for `CS(=O)(=O)c1ccc(-c2cc(N3CCOCC3)nc3c(-c4ccn[nH]4)nccc23)cn1` [Example 3, 4-[6-(methylsulfonyl)pyridin-3-yl]-2-(morpholin-4-yl)-8-(1H-pyrazol-5-yl)-1,7-naphthyridine], under setting [1], the IC50 came to 2770 nM.

On to `Cc1cc(S(C)(=O)=O)ncc1-c1cc(N2CCOCC2)nc2c(-c3ccn[nH]3)nccc12` [Example 6, 4-[4-methyl-6-(methylsulfonyl)pyridin-3-yl]-2-(morpholin-4-yl)-8-(1H-pyrazol-5-yl)-1,7-naphthyridine], for which the IC50 under setting [1] stood at 1490 nM.

With `COP(=O)(OC)c1ccc(-c2cc(N3CCOCC3)nc3c(-c4ccn[nH]4)nccc23)cc1` [Example 9, dimethyl {4-[2-(morpholin-4-yl)-8-(1H-pyrazol-5-yl)-1,7-naphthyridin-4-yl]phenyl}phosphonate], the IC50 (read-out: Inhibition of HeLa cell proliferation) worked out at 1010 nM.

Consider `CN1CC=C(c2cc(N3CCOCC3)nc3c(-c4ccn[nH]4)nccc23)CC1` [Example 14, 4-(1-methyl-1,2,3,6-tetrahydropyridin-4-yl)-2-(morpholin-4-yl)-8-(1H-pyrazol-5-yl)-1,7-naphthyridine], for which the IC50 under setting [1] came to 1990 nM.

For the compound `C[C@@H]1COCCN1c1cc(-c2ccccc2)c2ccnc(-c3cc[nH]n3)c2n1` [Example 27, 2-((R)-3-methylmorpholin-4-yl)-4-phenyl-8-(2H-pyrazol-3-yl)-[1,7]naphthyridine], the IC50 under setting [1] was 355 nM.

Turning to `C[C@@H]1COCCN1c1cc(-c2cccc(S(C)(=O)=O)c2)c2ccnc(-c3cc[nH]n3)c2n1` [Example 28, 4-(3-methanesulphonylphenyl)-2-((R)-3-methylmorpholin-4-yl)-8-(2H-pyrazol-3-yl)-[1,7]naphthyridine], under setting [1], the IC50 was 316 nM.

As to `CS(=O)(=O)Cc1cc(N2CCOCC2)nc2c(-c3ccn[nH]3)nccc12` [Example 37, 4-methanesulphonylmethyl-2-morpholin-4-yl-8-(2H-pyrazol-3-yl)-[1,7]naphthyridine], the IC50 under setting [1] was found to be 5080 nM.

As to `CCOc1cc(N2CCOCC2)nc2c(-c3cc[nH]n3)nccc12` [Example 43, 4-ethoxy-2-(morpholin-4-yl)-8-(1H-pyrazol-3-yl)-[1,7]naphthyridine], the IC50 under setting [1] was 3880 nM.

In the case of `c1ccc(COc2cc(N3CCOCC3)nc3c(-c4cc[nH]n4)nccc23)cc1` [Example 50, 4-benzyloxy-2-(morpholin-4-yl)-8-(1H-pyrazol-3-yl)-[1,7]naphthyridine], the IC50 under setting [1] is over 10000 nM.

Turning to `COc1cc(N2CCOC[C@H]2C)nc2c(-c3cc[nH]n3)nccc12` [Example 53, 4-methoxy-2-((R)-3-methylmorpholin-4-yl)-8-(1H-pyrazol-3-yl)-[1,7]naphthyridine], the IC50 under setting [1] came out at 1410 nM.

With `CCn1nccc1-c1cc(N2CCOC[C@H]2C)nc2c(-c3ccn[nH]3)nccc12` [Example 69, 4-(1-ethyl-1H-pyrazol-5-yl)-2-[(3R)-3-methylmorpholin-4-yl]-8-(1H-pyrazol-5-yl)-1,7-naphthyridine], under setting [1], the IC50 turned out to be 191 nM.

Consider `C[C@@H]1COCCN1c1cc(-c2cncn2C)c2ccnc(-c3ccn[nH]3)c2n1` [Example 70, 4-(1-methyl-1H-imidazol-5-yl)-2-[(3R)-3-methylmorpholin-4-yl]-8-(1H-pyrazol-5-yl)-1,7-naphthyridine], for which the IC50 under setting [1] amounted to 201 nM.

As to `C[C@@H]1COCCN1c1cc(-c2ccccc2N)c2ccnc(-c3ccn[nH]3)c2n1` [Example 71, 2-{2-[(3R)-3-methylmorpholin-4-yl]-8-(1H-pyrazol-5-yl)-1,7-naphthyridin-4-yl]aniline], the IC50 under setting [1] came to 167 nM.

Turning to `C[C@@H]1COCCN1c1cc(-c2cccc(F)c2F)c2ccnc(-c3ccn[nH]3)c2n1` [Example 72, 4-(2,3-difluorophenyl)-2-[(3R)-3-methylmorpholin-4-yl]-8-(1H-pyrazol-5-yl)-1,7-naphthyridine], the IC50 under setting [1] was 200 nM.

On to `C[C@@H]1COCCN1c1cc(-c2cc(F)ccc2N)c2ccnc(-c3ccn[nH]3)c2n1` [Example 75, 4-fluoro-2-[2-[(3R)-3-methylmorpholin-4-yl]-8-(1H-pyrazol-5-yl)-1,7-naphthyridin-4-yl]aniline], for which the IC50 under setting [1] came to 271 nM.

Take `C[C@@H]1COCCN1c1cc(-c2cncn2Cc2ccccc2)c2ccnc(-c3ccn[nH]3)c2n1` [Example 76, 4-(1-benzyl-1H-imidazol-5-yl)-2-[(3R)-3-methylmorpholin-4-yl]-8-(1H-pyrazol-5-yl)-1,7-naphthyridine]: under setting [1], the IC50 was 968 nM.

Consider `C[C@@H]1COCCN1c1cc(-c2ccccc2F)c2ccnc(-c3ccn[nH]3)c2n1` [Example 77, 4-(2-fluorophenyl)-2-[(3R)-3-methylmorpholin-4-yl]-8-(1H-pyrazol-5-yl)-1,7-naphthyridine], for which the IC50 under setting [1] was 254 nM.

Consider `Cc1ncc(-c2cc(N3CCOC[C@H]3C)nc3c(-c4ccn[nH]4)nccc23)s1` [Example 78, 2-[(3R)-3-methylmorpholin-4-yl]-4-(2-methyl-1,3-thiazol-5-yl)-8-(1H-pyrazol-5-yl)-1,7-naphthyridine], for which the IC50 under setting [1] was found to be 655 nM.

As to `C[C@@H]1COCCN1c1cc(-c2ccnn2C2CC2)c2ccnc(-c3ccn[nH]3)c2n1` [Example 80, 4-(1-cyclopropyl-1H-pyrazol-5-yl)-2-[(3R)-3-methylmorpholin-4-yl]-8-(1H-pyrazol-5-yl)-1,7-naphthyridine], under setting [1], the IC50 turned out to be 187 nM.

Take `C[C@@H]1COCCN1c1cc(-c2ccc(N3CCNCC3)cc2F)c2ccnc(-c3ccn[nH]3)c2n1` [Example 81, 4-[2-fluoro-4-(piperazin-1-yl)phenyl]-2-[(3R)-3-methylmorpholin-4-yl]-8-(1H-pyrazol-5-yl)-1,7-naphthyridine]: the IC50 under setting [1] stood at 245 nM.

`C[C@@H]1COCCN1c1cc(N2CCN(S(C)(=O)=O)CC2)c2ccnc(-c3ccn[nH]3)c2n1` [Example 82, 2-[(3R)-3-methylmorpholin-4-yl]-4-[4-(methylsulfonyl)piperazin-1-yl]-8-(1H-pyrazol-5-yl)-1,7-naphthyridine]: the IC50 under setting [1] stood at 529 nM.

In the case of `C[C@@H]1COCCN1c1cc(N(C)CC(C)(C)C)c2ccnc(-c3ccn[nH]3)c2n1` [Example 83, N-(2,2-dimethylpropyl)-N-methyl-2-[(3R)-3-methylmorpholin-4-yl]-8-(1H-pyrazol-5-yl)-1,7-naphthyridin-4-amine], the IC50 under setting [1] came out at 331 nM.

Take `C[C@@H]1COCCN1c1cc(N2CCC(CO)CC2)c2ccnc(-c3ccn[nH]3)c2n1` [Example 84, (1-{2-[(3R)-3-methylmorpholin-4-yl]-8-(1H-pyrazol-5-yl)-1,7-naphthyridin-4-yl}piperidin-4-yl)methanol]: the IC50 under setting [1] was 130 nM.

`C[C@@H]1COCCN1c1cc(N(C)C2CC2)c2ccnc(-c3ccn[nH]3)c2n1` [Example 85, N-cyclopropyl-N-methyl-2-[(3R)-3-methylmorpholin-4-yl]-8-(1H-pyrazol-5-yl)-1,7-naphthyridin-4-amine]: the IC50 under setting [1] worked out at 438 nM.

For `C[C@@H]1COCCN1c1cc(N(C)c2ccc(F)cc2)c2ccnc(-c3ccn[nH]3)c2n1` [Example 87, N-(4-fluorophenyl)-N-methyl-2-[(3R)-3-methylmorpholin-4-yl]-8-(1H-pyrazol-5-yl)-1,7-naphthyridin-4-amine], the IC50 under setting [1] worked out at 543 nM.

For the compound `C[C@@H]1COCCN1c1cc(-c2cccnc2F)c2ccnc(-c3ccn[nH]3)c2n1` [Example 89, 4-(2-fluoropyridin-3-yl)-2-[(3R)-3-methylmorpholin-4-yl]-8-(1H-pyrazol-5-yl)-1,7-naphthyridine], the IC50 under setting [1] was 142 nM.

Take `Cc1ccnc(F)c1-c1cc(N2CCOC[C@H]2C)nc2c(-c3ccn[nH]3)nccc12` [Example 90, 4-(2-fluoro-4-methylpyridin-3-yl)-2-[(3R)-3-methylmorpholin-4-yl]-8-(1H-pyrazol-5-yl)-1,7-naphthyridine]: under setting [1], the IC50 came to 92 nM.

Regarding `C[C@@H]1COCCN1c1cc(-c2cccn2C)c2ccnc(-c3ccn[nH]3)c2n1` [Example 91, 2-[(3R)-3-methylmorpholin-4-yl]-4-(1-methyl-1H-pyrrol-2-yl)-8-(1H-pyrazol-5-yl)-1,7-naphthyridine], the IC50 under setting [1] is 108 nM.

With `Cc1cc(-c2cc(N3CCOC[C@H]3C)nc3c(-c4ccn[nH]4)nccc23)cnc1F` [Example 92, 4-(6-fluoro-5-methylpyridin-3-yl)-2-[(3R)-3-methylmorpholin-4-yl]-8-(1H-pyrazol-5-yl)-1,7-naphthyridine], under setting [1], the IC50 stood at 117 nM.

With `Cc1ccc(-c2cc(N3CCOC[C@H]3C)nc3c(-c4ccn[nH]4)nccc23)c(F)n1` [Example 93, 4-(2-fluoro-6-methylpyridin-3-yl)-2-[(3R)-3-methylmorpholin-4-yl]-8-(1H-pyrazol-5-yl)-1,7-naphthyridine], the IC50 under setting [1] came out at 179 nM.

As for `C[C@@H]1COCCN1c1cc(-c2ccc(F)nc2)c2ccnc(-c3ccn[nH]3)c2n1` [Example 94, 4-(6-fluoropyridin-3-yl)-2-[(3R)-3-methylmorpholin-4-yl]-8-(1H-pyrazol-5-yl)-1,7-naphthyridine], under setting [1], the IC50 was 268 nM.

In the case of `COc1ccc(-c2cc(N3CCOC[C@H]3C)nc3c(-c4ccn[nH]4)nccc23)cn1` [Example 95, 4-(6-methoxypyridin-3-yl)-2-[(3R)-3-methylmorpholin-4-yl]-8-(1H-pyrazol-5-yl)-1,7-naphthyridine], the IC50 under setting [1] is 211 nM.

As for `COc1ncc(-c2cc(N3CCOC[C@H]3C)nc3c(-c4ccn[nH]4)nccc23)cc1C` [Example 96, 4-(6-methoxy-5-methylpyridin-3-yl)-2-[(3R)-3-methylmorpholin-4-yl]-8-(1H-pyrazol-5-yl)-1,7-naphthyridine], under setting [1], the IC50 worked out at 169 nM.

With `Cc1nc(F)ccc1-c1cc(N2CCOC[C@H]2C)nc2c(-c3ccn[nH]3)nccc12` [Example 97, 4-(6-fluoro-2-methylpyridin-3-yl)-2-[(3R)-3-methylmorpholin-4-yl]-8-(1H-pyrazol-5-yl)-1,7-naphthyridine], the IC50 under setting [1] stood at 252 nM.
